Key:
[1] = target: T1, 5-HT2C receptor G218^5.42A (Homo sapiens, UniProt P28335, DEL255-298/G218A/G251D/H250E/H252N/INS299[…]/L248D/M247A/M300L/T253W); assay: CPM thermal stability assay, 5-HT2C mutant G218A; assay type: binding
T1 construct: the N- and C-terminals were truncated by 39 and 65 residues, respectively; PreScission protease site + 10× His (C); made in house
Description: (§1) Based on the binding poses predicted by molecular docking, single-point mutations were designed to test their impact on ligand binding. Mutations of several residues include the highly conserved Asp134^3.32, which is known to cause 5-HT1B or 5-HT2B receptors to abolish the monoamine ligand binding as reported in the literature (Wang et al. [2013]). In this study, residues forming hydrophobic interactions with the substitution groups on the aporphine scaffold of (–)-crebanine (1) were selected for mutation as well and they are Thr139^3.37, Gly218^5.42, Ala222^5.46, and Leu209^ECL2. Effects of those mutations were tested with the CPM assay and the affinity MS assay (Table 2). In the affinity MS experiment, relative ligand-binding capacity (represented by binding %) to different mutants and the wild-type receptor was compared. […]
Purified 5-HT2C receptor protein was thoroughly mixed with CPM fluorescent dyes. […] Fluorescence signals, wavelength 387 nm (excitation) and 463 nm (emission), were monitored (Alexandrov et al. [2008]). […] The thermal denaturation of the samples was evaluated using the scatter plot curve, where the horizontal coordinates represented temperature and the vertical coordinates indicated normalized fluorescence intensity recorded for a particular temperature. […]

[2] = target: T2, 5-HT2C receptor L209^ECL2F (Homo sapiens, UniProt P28335, DEL255-298/G251D/H250E/H252N/INS299[…]/L209F/L248D/M247A/M300L/T253W); assay: Affinity MS assay, 5-HT2C mutant L209F; assay type: binding; conditions: n = 2
T2 construct: the N- and C-terminals were truncated by 39 and 65 residues, respectively; PreScission protease site + 10× His (C); made in house
Description: as §1, with “compared. Among the six mutations tested, five of them reduced the binding of (–)-crebanine (1) by more than 40% relative to binding to the wild-type receptor, displaying the importance of hydrophobic interactions.” for “compared.”
Four experimental replicates were prepared for each pair of the test ligand and the negative control. […] S/C ratios refer to the ratio of MS response of a specific ligand detected in the 5-HT2C incubation sample versus the control. […]

T1 sequence (P28335 with tags, fused parts or gaps with the stated changes): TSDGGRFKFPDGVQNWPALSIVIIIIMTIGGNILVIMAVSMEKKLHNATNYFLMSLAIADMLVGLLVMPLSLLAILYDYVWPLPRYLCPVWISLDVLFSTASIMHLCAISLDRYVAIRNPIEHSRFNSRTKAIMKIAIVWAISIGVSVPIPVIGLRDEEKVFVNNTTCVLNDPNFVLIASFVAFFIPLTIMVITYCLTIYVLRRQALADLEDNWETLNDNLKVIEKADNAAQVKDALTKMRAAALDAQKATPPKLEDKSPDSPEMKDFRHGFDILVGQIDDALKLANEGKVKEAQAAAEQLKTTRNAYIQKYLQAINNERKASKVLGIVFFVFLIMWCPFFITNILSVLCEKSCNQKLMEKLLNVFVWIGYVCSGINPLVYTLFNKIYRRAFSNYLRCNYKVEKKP
T2 sequence (P28335 with tags, fused parts or gaps with the stated changes): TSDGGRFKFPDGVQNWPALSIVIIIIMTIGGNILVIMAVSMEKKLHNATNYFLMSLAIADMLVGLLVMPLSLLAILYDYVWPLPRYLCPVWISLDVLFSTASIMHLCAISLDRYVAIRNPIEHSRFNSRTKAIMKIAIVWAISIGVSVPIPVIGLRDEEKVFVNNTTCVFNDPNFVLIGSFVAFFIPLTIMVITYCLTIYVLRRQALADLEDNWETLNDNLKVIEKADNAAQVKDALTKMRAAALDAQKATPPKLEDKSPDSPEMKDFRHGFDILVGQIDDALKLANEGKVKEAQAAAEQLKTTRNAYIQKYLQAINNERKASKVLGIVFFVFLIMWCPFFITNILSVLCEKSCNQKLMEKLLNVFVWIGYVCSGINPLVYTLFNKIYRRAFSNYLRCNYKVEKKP

COc1ccc2c(c1OC)C[C@@H]1c3c(cc4c(c3-2)OCO4)CCN1C [Compound 1, (–)-crebanine]
(–)-Crebanine/CPM (Tm) ([1]; mutant G218^5.42A, n = 2): 53.92 °C | Tm value decrease versus wild-type ([1]; mutation Gly218^5.42Ala): over 6.0 °C | (–)-Crebanine/MS relative ligand binding [2]: 13.22%

Reference: publication PMC5860131, “Identification of natural products as novel ligands for the human 5-HT2C receptor” (Biophysics Reports, 2018)
